Measurements published in ChEMBL document CHEMBL4765432, “Design and synthesis of novel Flavone-based histone deacetylase inhibitors antagonizing activation of STAT3 in breast cancer” (Eur J Med Chem, 2020).
Calls of active or inactive are those of the source. The calls are words filed in the database; no cut-off is given here.

What was measured:
[1] = Inhibition of HDAC in human HeLa cell extracts assessed as inhibition of substrate deacetylation using Boc-Lys (q-Ac)-AMC as substrate incubated for 10 mins followed by substrate addition and measured after 30 mins by fluorescence based assay; assay type: tissue-based
[2] = system: MDA-MB-231; experiment: Induction of apoptosis in human MDA-MB-231 cells assessed as necrotic cells at 10 uM incubated for 72 hrs by annexinV-FITC and PI staining based flow cytometry analysis (reference value: 0.330 %); assay type: functional
[3] = system: 4T1; experiment: Induction of apoptosis in mouse 4T1 cells assessed as necrotic cells at 10 uM incubated for 72 hrs by annexinV-FITC and PI staining based flow cytometry analysis (reference value: 5.00 %); assay type: functional
[4] = system: 4T1; experiment: Induction of apoptosis in mouse 4T1 cells assessed as early apoptotic cells at 10 uM incubated for 72 hrs by annexinV-FITC and PI staining based flow cytometry analysis (reference value: 1.65 %); assay type: functional
[5] = system: MDA-MB-231; experiment: Induction of apoptosis in human MDA-MB-231 cells assessed as late apoptotic cells at 10 uM incubated for 72 hrs by annexinV-FITC and PI staining based flow cytometry analysis (reference value: 3.79 %); assay type: functional
[6] = system: 4T1; experiment: Induction of apoptosis in mouse 4T1 cells assessed as viable cells at 10 uM incubated for 72 hrs by annexinV-FITC and PI staining based flow cytometry analysis (reference value: 91.1 %); assay type: functional; settings: read-out: Activity
[7] = system: MDA-MB-231; experiment: Induction of apoptosis in human MDA-MB-231 cells assessed as early apoptotic cells at 10 uM incubated for 72 hrs by annexinV-FITC and PI staining based flow cytometry analysis (reference value: 5.57 %); assay type: functional
[8] = system: MDA-MB-231; experiment: Induction of apoptosis in human MDA-MB-231 cells assessed as viable cells at 10 uM incubated for 72 hrs by annexinV-FITC and PI staining based flow cytometry analysis (reference value: 90.3 %); assay type: functional; settings: read-out: Activity
[9] = system: 4T1; experiment: Induction of apoptosis in mouse 4T1 cells assessed as late apoptotic cells at 10 uM incubated for 72 hrs by annexinV-FITC and PI staining based flow cytometry analysis (reference value: 2.24 %); assay type: functional
[10] = Toxicity in C57BL/6 mouse assessed death of organism at 50 mg/kg, po observed for 20 days; assay type: organism-based; settings: in vivo, 480 h, time 20 day
[11] = molecular target: Signal transducer and activator of transcription 3 (Homo sapiens) (UniProt P40763); experiment: Inhibition of STAT3 in human MDA-MB-231 cells assessed as reduction in STAT-3 phosphorylation incubated for 8 hrs by Western blot analysis; assay type: cell-based; settings: dose 2.5-20 µM
Signal transducer and activator of transcription 3 (Homo sapiens), sequence (P40763 whole entry): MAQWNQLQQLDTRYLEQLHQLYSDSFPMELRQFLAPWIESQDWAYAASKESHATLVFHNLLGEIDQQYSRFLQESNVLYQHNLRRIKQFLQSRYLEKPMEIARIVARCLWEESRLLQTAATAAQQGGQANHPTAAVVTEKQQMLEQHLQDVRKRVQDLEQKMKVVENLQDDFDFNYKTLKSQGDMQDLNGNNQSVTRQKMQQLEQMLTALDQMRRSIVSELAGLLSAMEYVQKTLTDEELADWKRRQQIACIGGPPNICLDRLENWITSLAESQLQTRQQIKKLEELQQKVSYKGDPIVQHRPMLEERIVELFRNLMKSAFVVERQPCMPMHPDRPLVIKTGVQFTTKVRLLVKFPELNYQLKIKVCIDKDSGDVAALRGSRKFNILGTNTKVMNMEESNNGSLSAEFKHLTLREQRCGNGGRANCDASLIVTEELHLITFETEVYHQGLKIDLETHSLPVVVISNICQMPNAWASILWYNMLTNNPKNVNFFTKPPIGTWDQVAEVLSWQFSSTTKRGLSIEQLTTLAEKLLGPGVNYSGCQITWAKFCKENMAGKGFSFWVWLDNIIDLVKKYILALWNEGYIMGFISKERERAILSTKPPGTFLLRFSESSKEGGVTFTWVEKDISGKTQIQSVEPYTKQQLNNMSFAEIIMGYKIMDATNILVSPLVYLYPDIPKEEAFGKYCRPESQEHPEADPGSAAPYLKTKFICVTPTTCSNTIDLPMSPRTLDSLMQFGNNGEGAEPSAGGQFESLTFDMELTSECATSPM

[12] = Toxicity in C57BL/6 mouse assessed death of organism at 300 mg/kg, ip observed for 24 hrs; assay type: organism-based; settings: in vivo
[13] = molecular target: Signal transducer and activator of transcription 3 (Homo sapiens) (UniProt P40763); experiment: Inhibition of STAT3 in human MDA-MB-231 cells assessed as reduction in STAT-3 phosphorylation at 2.5 to 40 uM incubated for 8 hrs by Western blot analysis; assay type: cell-based; settings: dose 2.5-40 µM
[14] = system: 4T1; experiment: Induction of apoptosis in mouse 4T1 cells implanted in BALB/c mouse assessed as increase in caspase-3 cleavage by immunohistochemistry method; assay type: functional, cell-based
[15] = system: MDA-MB-231; experiment: Induction of apoptosis in human MDA-MB-231 cells assessed as late apoptotic cells at 5 uM incubated for 72 hrs by annexinV-FITC and PI staining based flow cytometry analysis (reference value: 3.79 %); assay type: functional
[16] = Genotoxicity in Salmonella typhimurium TA97a by Ames test; assay type: toxicity; settings: salmonella enterica subsp. enterica serovar typhimurium
[17] = Genotoxicity in Salmonella typhimurium WP2 uvrA (pKM 101) by Ames test; assay type: toxicity; settings: salmonella enterica subsp. enterica serovar typhimurium
[18] = system: MDA-MB-231; experiment: Induction of apoptosis in human MDA-MB-231 cells xenografted in BALB/c mouse assessed as increase in caspase-3 cleavage by immunohistochemistry method; assay type: functional, cell-based
[19] = Genotoxicity in Salmonella typhimurium TA98 by Ames test; assay type: toxicity; settings: salmonella enterica subsp. enterica serovar typhimurium
[20] = system: 4T1; experiment: Induction of apoptosis in mouse 4T1 cells assessed as viable cells at 5 uM incubated for 72 hrs by annexinV-FITC and PI staining based flow cytometry analysis (reference value: 91.1 %); assay type: functional; settings: read-out: Activity
[21] = system: 4T1; experiment: Induction of cell cycle arrest in mouse 4T1 cells assessed as S phase accumulation at 2 uM incubated for 24 hrs by PI staining based flow cytometry analysis (reference value: 19.43 %); assay type: functional
[22] = system: MDA-MB-231; experiment: Induction of cell cycle arrest in human MDA-MB-231 cells assessed as S phase accumulation at 2 uM incubated for 24 hrs by PI staining based flow cytometry analysis (reference value: 43.82 %); assay type: functional
[23] = system: 4T1; experiment: Induction of apoptosis in mouse 4T1 cells assessed as early apoptotic cells at 5 uM incubated for 72 hrs by annexinV-FITC and PI staining based flow cytometry analysis (reference value: 1.65 %); assay type: functional
[24] = Genotoxicity in Salmonella typhimurium TA1537 by Ames test; assay type: toxicity; settings: salmonella enterica subsp. enterica serovar typhimurium
[25] = system: 4T1; experiment: Induction of apoptosis in mouse 4T1 cells assessed as late apoptotic cells at 5 uM incubated for 72 hrs by annexinV-FITC and PI staining based flow cytometry analysis (reference value: 2.24 %); assay type: functional
[26] = system: MDA-MB-231; experiment: Induction of cell cycle arrest in human MDA-MB-231 cells assessed as G0/G1 phase accumulation at 2 uM incubated for 24 hrs by PI staining based flow cytometry analysis (reference value: 29.10 %); assay type: functional
[27] = system: 4T1; experiment: Induction of cell cycle arrest in mouse 4T1 cells assessed as G2/M phase accumulation at 2 uM incubated for 24 hrs by PI staining based flow cytometry analysis (reference value: 38.51 %); assay type: functional
[28] = system: 4T1; experiment: Induction of apoptosis in mouse 4T1 cells assessed as necrotic cells at 5 uM incubated for 72 hrs by annexinV-FITC and PI staining based flow cytometry analysis (reference value: 5.00 %); assay type: functional
[29] = system: MDA-MB-231; experiment: Induction of apoptosis in human MDA-MB-231 cells assessed as viable cells at 5 uM incubated for 72 hrs by annexinV-FITC and PI staining based flow cytometry analysis (reference value: 90.3 %); assay type: functional; settings: read-out: Activity
[30] = system: 4T1; experiment: Induction of cell cycle arrest in mouse 4T1 cells assessed as G0/G1 phase accumulation at 2 uM incubated for 24 hrs by PI staining based flow cytometry analysis (reference value: 42.06 %); assay type: functional
[31] = system: MDA-MB-231; experiment: Induction of apoptosis in human MDA-MB-231 cells assessed as necrotic cells at 5 uM incubated for 72 hrs by annexinV-FITC and PI staining based flow cytometry analysis (reference value: 0.330 %); assay type: functional
[32] = system: MDA-MB-231; experiment: Induction of cell cycle arrest in human MDA-MB-231 cells assessed as G2/M phase accumulation at 2 uM incubated for 24 hrs PI staining based by flow cytometry analysis (reference value: 27.08 %); assay type: functional
[33] = system: HepG2; experiment: Cytotoxicity against human HepG2 cells assessed as reduction in cell viability incubated for 48 hrs by MTT assay; assay type: functional, cell-based; settings: HepG2, 48 h
[34] = system: MDA-MB-231; experiment: Induction of apoptosis in human MDA-MB-231 cells assessed as early apoptotic cells at 5 uM incubated for 72 hrs by annexinV-FITC and PI staining based flow cytometry analysis (reference value: 5.57 %); assay type: functional
[35] = system: T47D; experiment: Cytotoxicity against human T47D cells assessed as reduction in cell viability incubated for 48 hrs by MTT assay; assay type: functional, cell-based
[36] = Genotoxicity in Salmonella typhimurium TA1535 by Ames test; assay type: toxicity; settings: salmonella enterica subsp. enterica serovar typhimurium
[37] = Genotoxicity in Salmonella typhimurium TA100 by Ames test; assay type: toxicity; settings: salmonella enterica subsp. enterica serovar typhimurium

CN1CCN(CCOc2ccc(-c3cc(=O)c4c(O)cc(OCCCCCC(=O)NO)cc4o3)cc2)CC1
IC50 [1]: 0.225 µM

COc1ccc(-c2cc(=O)c3c(O)cc(OCCCCCC(=O)NO)cc3o2)cc1
IC50 [1]: 4530 µM

O=C(CCCOc1cc(O)c2c(=O)cc(-c3ccccc3)oc2c1)NO
IC50 [1]: > 10 µM

CN(C)CCCOc1ccc(-c2cc(=O)c3c(O)cc(OCCCCCCC(=O)NO)cc3o2)cc1
IC50 [1]: 0.025 µM

COc1ccc(-c2coc3cc(OCCCCCCC(=O)NO)ccc3c2=O)cc1
IC50 [1]: > 10 µM

O=C(CCCCCCCOc1cc(O)c2c(=O)cc(-c3ccc(O)cc3)oc2c1)NO
IC50 [1]: 0.615 µM

COc1ccc(-c2coc3cc(OCCCCCCC(=O)NO)cc(O)c3c2=O)cc1
IC50 [1]: > 10 µM

O=C(CCCCCOc1cc(O)c2c(=O)cc(-c3ccc(OCCN4CCOCC4)cc3)oc2c1)NO
IC50 [1]: 0.59 µM

O=C(CCCCCOc1cc(O)c2c(=O)cc(-c3ccccc3)oc2c1)NO
IC50 [1]: 0.053 µM

O=C(CCCCCOc1cc(O)c2c(=O)cc(-c3ccc(O)cc3)oc2c1)NO
IC50 [1]: 0.297 µM

COc1ccc(-c2coc3cc(OCCCCCC(=O)NO)ccc3c2=O)cc1
IC50 [1]: 0.71 µM

O=C(CCCCCCOc1cc(O)c2c(=O)cc(-c3ccccc3)oc2c1)NO
IC50 [1]: 0.088 µM

O=C(CCCCCOc1cc(O)c2c(=O)cc(-c3ccc(OCCN4CCCC4)cc3)oc2c1)NO
IC50 [1]: > 10 µM

CN(C)CCOc1ccc(-c2cc(=O)c3c(O)cc(OCCCCCCCC(=O)NO)cc3o2)cc1
IC50 [1]: 1.68 µM

O=C(CCCCOc1cc(O)c2c(=O)cc(-c3ccccc3)oc2c1)NO
IC50 [1]: 3.33 µM

COc1ccc(-c2cc(=O)c3c(O)cc(OCCCCCCCC(=O)NO)cc3o2)cc1
IC50 [1]: > 10 µM

O=C(CCCCCCCOc1cc(O)c2c(=O)cc(-c3ccccc3)oc2c1)NO
IC50 [1]: 0.402 µM

O=c1cc(-c2ccc(O)cc2)oc2cc(O)cc(O)c12 [APIGENIN]
Activity [2]: 0.02% | Activity [3]: 4.45% | Activity [4]: 3.22% | Activity [5]: 1.59% | viability at 10 µM [6]: 89.1% | Activity [7]: 8.28% | IC50 [1]: > 10 µM | viability at 10 µM [8]: 90.1% | Activity [9]: 3.22%

COc1ccc(-c2coc3cc(OCCCCCCCC(=O)NO)cc(O)c3c2=O)cc1
IC50 [1]: > 10 µM

O=C(COc1cc(O)c2c(=O)cc(-c3ccccc3)oc2c1)NO
IC50 [1]: > 10 µM

CN(C)CCCOc1ccc(-c2cc(=O)c3c(O)cc(OCCCCCC(=O)NO)cc3o2)cc1.Cl
Activity [10]: Toxic | inhibition [11]: Dose-dependent effect | IC50 [1]: 0.065 µM | Activity [12]: Toxic

O=C(CCCCCOc1cc(O)c2c(=O)cc(-c3ccc(OCCN4CCCCC4)cc3)oc2c1)NO
IC50 [1]: 0.133 µM

CN(C)CCCOc1ccc(-c2cc(=O)c3c(O)cc(OCCCCCCCC(=O)NO)cc3o2)cc1
IC50 [1]: 0.053 µM

COc1ccc(-c2cc(=O)c3c(O)cc(OCCCCCCC(=O)NO)cc3o2)cc1
IC50 [1]: 5.25 µM

COC(=O)CCCCCOc1cc(O)c2c(=O)cc(-c3ccc(OCCN(C)C)cc3)oc2c1
inhibition [13]: Active

COc1ccc(-c2coc3cc(OCCCCCC(=O)NO)cc(O)c3c2=O)cc1
IC50 [1]: > 10 µM

COc1ccc(-c2coc3cc(OCCCCCCCC(=O)NO)ccc3c2=O)cc1
IC50 [1]: > 10 µM

O=C(CCCCCCC(=O)Nc1ccccc1)NO [VORINOSTAT]
Activity [14]: Active | Activity [15]: 25.8% | Activity [16]: Toxic | Activity [17]: Non-Toxic | Activity [18]: Active | Activity [19]: Non-Toxic | viability at 5 µM [20]: 35.6% | Activity [21]: 23.63% | Activity [22]: 8.32% | Activity [23]: 48.9% | Activity [24]: Non-Toxic | Activity [25]: 13.4% | Activity [26]: 72.99% | Activity [27]: 22.68% | Activity [28]: 2.08% | viability at 5 µM [29]: 53.8% | Activity [30]: 53.69% | Activity [31]: 0.356% | Activity [32]: 18.69% | IC50 [33]: 2260 nM | Activity [34]: 20.1% | IC50 [35]: 2240 nM | inhibition [13]: inactive | Activity [36]: Non-Toxic | Activity [37]: Toxic

O=C(CCCCCCOc1cc(O)c2c(=O)cc(-c3ccc(O)cc3)oc2c1)NO
IC50 [1]: 0.93 µM

CN(C)CCOc1ccc(-c2cc(=O)c3c(O)cc(OCCCCCCC(=O)NO)cc3o2)cc1
IC50 [1]: 0.732 µM
